From patent US8975398B2, “NAMPT inhibitors” (AbbVie Inc., priority 2012, dated 2015)

Tested on: PC3 cells
Experiment: NAMPT Cell Proliferation Assay (Cell Titer Glo; also performed in the presence of 0.3 mM nicotinamide mononucleotide)
Format: cell-based
Conditions: Homo sapiens, PC-3, 120 h, 5 days incubation, cell viability by Cell Titer Glo
Outline: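 Cell Titer Glo viability after 5-day exposure (37° C, 5% CO2); PC3, 500 cells/well, RPMI + 10% heat-inactivated FBS, overnight attachment before dosing. Dose range 10 μM to 1×10^−5 μM, 10-fold steps. IC50 = sigmoidal fit of % inhibition.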

IC50 | Compound
0.0612 µM | CCC1CCCCN1CCNC(=O)c1ccc(NC(=O)C2CN(c3cccnn3)C2)cc1 (stereo not drawn) [Example 976, N-(4-{[2-(2-ethylpiperidin-1-yl)ethyl]carbamoyl}phenyl)-1-(pyridazin-3-yl)azetidine-3-carboxamide]
0.0124 µM | O=C(NCC1CCC1)c1ccc(NC(=O)C2CN(c3cccnn3)C2)cc1 [Example 977, N-{4-[(cyclobutylmethyl)carbamoyl]phenyl}-1-(pyridazin-3-yl)azetidine-3-carboxamide]
1.07 µM | CC[C@H](C)NC(=O)c1ccc(NC(=O)C2CN(c3cccnn3)C2)cc1 [Example 978, N-{4-[(2S)-butan-2-ylcarbamoyl]phenyl}-1-(pyridazin-3-yl)azetidine-3-carboxamide]
0.072 µM | CCCCNC(=O)c1ccc(NC(=O)C2CN(c3cccnn3)C2)cc1 [Example 979, N-[4-(butylcarbamoyl)phenyl]-1-(pyridazin-3-yl)azetidine-3-carboxamide]
0.0822 µM | CC1(C)CC(NC(=O)c2ccc(NC(=O)C3CN(c4cccnn4)C3)cc2)CCO1 (stereo not drawn) [Example 980, N-{4-[(2,2-dimethyltetrahydro-2H-pyran-4-yl)carbamoyl]phenyl}-1-(pyridazin-3-yl)azetidine-3-carboxamide]
1.06 µM | C[C@H](NC(=O)c1ccc(NC(=O)C2CN(c3cccnn3)C2)cc1)C1CC1 [Example 981, N-(4-{[(1S)-1-cyclopropylethyl]carbamoyl}phenyl)-1-(pyridazin-3-yl)azetidine-3-carboxamide]
0.0835 µM | CN(CCNC(=O)c1ccc(NC(=O)C2CN(c3cccnn3)C2)cc1)c1ccccc1 [Example 982, N-[4-({2-[methyl(phenyl)amino]ethyl}carbamoyl)phenyl]-1-(pyridazin-3-yl)azetidine-3-carboxamide]
0.604 µM | O=C(NC1(C2CC2)CC1)c1ccc(NC(=O)C2CN(c3cccnn3)C2)cc1 [Example 983, N-{4-[1,1′-bi(cyclopropyl)-1-ylcarbamoyl]phenyl}-1-(pyridazin-3-yl)azetidine-3-carboxamide]
0.696 µM | O=C(Nc1ccsc1)c1ccc(NC(=O)C2CN(c3cccnn3)C2)cc1 [Example 984, 1-(pyridazin-3-yl)-N-[4-(thiophen-3-ylcarbamoyl)phenyl]azetidine-3-carboxamide]
0.635 µM | C[C@@H](NC(=O)c1ccc(NC(=O)C2CN(c3cccnn3)C2)cc1)C1CC1 [Example 985, N-(4-{[(1R)-1-cyclopropylethyl]carbamoyl}phenyl)-1-(pyridazin-3-yl)azetidine-3-carboxamide]
7.47 µM | CN1CCC(NC(=O)c2ccc(NC(=O)C3CN(c4cccnn4)C3)cc2)CC1 [Example 986, N-{4-[(1-methylpiperidin-4-yl)carbamoyl]phenyl}-1-(pyridazin-3-yl)azetidine-3-carboxamide]
0.609 µM | CC[C@@H](C)NC(=O)c1ccc(NC(=O)C2CN(c3cccnn3)C2)cc1 [Example 987, N-{4-[(2R)-butan-2-ylcarbamoyl]phenyl}-1-(pyridazin-3-yl)azetidine-3-carboxamide]
0.602 µM | O=C(NCC1CCOC1)c1ccc(NC(=O)C2CN(c3cccnn3)C2)cc1 (stereo not drawn) [Example 989, 1-(pyridazin-3-yl)-N-{4-[(tetrahydrofuran-3-ylmethyl)carbamoyl]phenyl}azetidine-3-carboxamide]
6.81 µM | O=C(NCC1COC1)c1ccc(NC(=O)C2CN(c3cccnn3)C2)cc1 [Example 990, N-{4-[(oxetan-3-ylmethyl)carbamoyl]phenyl}-1-(pyridazin-3-yl)azetidine-3-carboxamide]
0.76 µM | CC1CC1NC(=O)c1ccc(NC(=O)C2CN(c3cccnn3)C2)cc1 (stereo not drawn) [Example 991, N-{4-[(2-methylcyclopropyl)carbamoyl]phenyl}-1-(pyridazin-3-yl)azetidine-3-carboxamide]
1.51 µM | O=C(NC1CCC1)c1ccc(NC(=O)C2CN(c3cccnn3)C2)cc1 [Example 992, N-[4-(cyclobutylcarbamoyl)phenyl]-1-(pyridazin-3-yl)azetidine-3-carboxamide]
0.809 µM | CC1(NC(=O)c2ccc(NC(=O)C3CN(c4cccnn4)C3)cc2)CC1 [Example 993, N-{4-[(1-methylcyclopropyl)carbamoyl]phenyl}-1-(pyridazin-3-yl)azetidine-3-carboxamide]
0.059 µM | COC(C)(C)CNC(=O)c1ccc(NC(=O)C2CN(c3cccnn3)C2)cc1 [Example 994, N-{4-[(2-methoxy-2-methylpropyl)carbamoyl]phenyl}-1-(pyridazin-3-yl)azetidine-3-carboxamide]
0.245 µM | O=C(NCC1CC1)c1ccc(NC(=O)C2CN(c3cccnn3)C2)cc1 [Example 995, N-{4-[(cyclopropylmethyl)carbamoyl]phenyl}-1-(pyridazin-3-yl)azetidine-3-carboxamide]

IC50 | Compound
0.104 µM | O=C(NC[C@H]1CCCO1)c1ccc(NC(=O)C2CN(c3cccnn3)C2)cc1 [Example 996, 1-(pyridazin-3-yl)-N-(4-{[(2R)-tetrahydrofuran-2-ylmethyl]carbamoyl}phenyl)azetidine-3-carboxamide]
0.0935 µM | O=C(NCCC(F)(F)F)c1ccc(NC(=O)C2CN(c3cccnn3)C2)cc1 [Example 997, 1-(pyridazin-3-yl)-N-{4-[(3,3,3-trifluoropropyl)carbamoyl]phenyl}azetidine-3-carboxamide]
1.28 µM | CN1CCCC(NC(=O)c2ccc(NC(=O)C3CN(c4cccnn4)C3)cc2)C1 (stereo not drawn) [Example 998, N-{4-[(1-methylpiperidin-3-yl)carbamoyl]phenyl}-1-(pyridazin-3-yl)azetidine-3-carboxamide]
0.25 µM | CC1(CNC(=O)c2ccc(NC(=O)C3CN(c4cccnn4)C3)cc2)COC1 [Example 999, N-(4-{[(3-methyloxetan-3-yl)methyl]carbamoyl}phenyl)-1-(pyridazin-3-yl)azetidine-3-carboxamide]
0.077 µM | O=C(NC[C@@H]1CCCO1)c1ccc(NC(=O)C2CN(c3cccnn3)C2)cc1 [Example 1000, 1-(pyridazin-3-yl)-N-(4-{[(2S)-tetrahydrofuran-2-ylmethyl]carbamoyl}phenyl)azetidine-3-carboxamide]
0.0532 µM | O=C(NCC1CCOCC1)c1ccc(NC(=O)C2CN(c3cccnn3)C2)cc1 [Example 1001, 1-(pyridazin-3-yl)-N-{4-[(tetrahydro-2H-pyran-4-ylmethyl)carbamoyl]phenyl}azetidine-3-carboxamide]
0.911 µM | O=C(NC1CCOCC1)c1ccc(NC(=O)C2CN(c3cccnn3)C2)cc1 [Example 1002, 1-(pyridazin-3-yl)-N-[4-(tetrahydro-2H-pyran-4-ylcarbamoyl)phenyl]azetidine-3-carboxamide]
1.07 µM | CN1CCCC(CNC(=O)c2ccc(NC(=O)C3CN(c4cccnn4)C3)cc2)C1 (stereo not drawn) [Example 1003, N-(4-{[(1-methylpiperidin-3-yl)methyl]carbamoyl}phenyl)-1-(pyridazin-3-yl)azetidine-3-carboxamide]
7.92 µM | O=C(NC1CC1)c1ccc(NC(=O)C2CN(c3cccnn3)C2)cc1 [Example 1004, N-[4-(cyclopropylcarbamoyl)phenyl]-1-(pyridazin-3-yl)azetidine-3-carboxamide]
0.592 µM | O=C(NC1CCCC1)c1ccc(NC(=O)C2CN(c3cccnn3)C2)cc1 [Example 1005, N-[4-(cyclopentylcarbamoyl)phenyl]-1-(pyridazin-3-yl)azetidine-3-carboxamide]
0.00536 µM | O=C(NCc1ccccc1)c1ccc(NC(=O)C2CN(c3cccnn3)C2)cc1 [Example 1006, N-[4-(benzylcarbamoyl)phenyl]-1-(pyridazin-3-yl)azetidine-3-carboxamide]
0.0567 µM | O=C(Nc1cccc(F)c1)c1ccc(NC(=O)C2CN(c3cccnn3)C2)cc1 [Example 1007, N-{4-[(3-fluorophenyl)carbamoyl]phenyl}-1-(pyridazin-3-yl)azetidine-3-carboxamide]
0.299 µM | CCCNC(=O)c1ccc(NC(=O)C2CN(c3cccnn3)C2)cc1 [Example 1008, N-[4-(propylcarbamoyl)phenyl]-1-(pyridazin-3-yl)azetidine-3-carboxamide]
0.0818 µM | O=C(Nc1ccc(F)cc1)c1ccc(NC(=O)C2CN(c3cccnn3)C2)cc1 [Example 1009, N-{4-[(4-fluorophenyl)carbamoyl]phenyl}-1-(pyridazin-3-yl)azetidine-3-carboxamide]
0.0709 µM | O=C(Nc1ccccc1F)c1ccc(NC(=O)C2CN(c3cccnn3)C2)cc1 [Example 1010, N-{4-[(2-fluorophenyl)carbamoyl]phenyl}-1-(pyridazin-3-yl)azetidine-3-carboxamide]
0.113 µM | CC1(NC(=O)c2ccc(NC(=O)C3CN(c4cccnn4)C3)cc2)CCC1 [Example 1011, N-{4-[(1-methylcyclobutyl)carbamoyl]phenyl}-1-(pyridazin-3-yl)azetidine-3-carboxamide]
0.782 µM | C=CCNC(=O)c1ccc(NC(=O)C2CN(c3cccnn3)C2)cc1 [Example 1012, N-[4-(prop-2-en-1-ylcarbamoyl)phenyl]-1-(pyridazin-3-yl)azetidine-3-carboxamide]
0.213 µM | CC(C)(C)C(=O)N1CCC(c2ccc(C(=O)N[C@H]3CCN(c4cccnn4)C3)s2)CC1 [Example 1013, 5-[1-(2,2-dimethylpropanoyl)piperidin-4-yl]-N-[(3S)-1-(pyridazin-3-yl)pyrrolidin-3-yl]thiophene-2-carboxamide]
0.219 µM | CC(C)(C)CC(=O)N1CCC(c2ccc(C(=O)N[C@H]3CCN(c4cccnn4)C3)s2)CC1 [Example 1014, 5-[1-(3,3-dimethylbutanoyl)piperidin-4-yl]-N-[(3S)-1-(pyridazin-3-yl)pyrrolidin-3-yl]thiophene-2-carboxamide]

Compound | IC50
O=C(NC1CN2CCC1CC2)c1ccc(NC(=O)C2CN(c3cccnn3)C2)cc1 (stereo not drawn) [Example 988, N-[4-(1-azabicyclo[2.2.2]oct-3-ylcarbamoyl)phenyl]-1-(pyridazin-3-yl)azetidine-3-carboxamide] | 1.24 µM
